Test results published in patent publication US20200039970A1, “HYDANTOIN MODULATORS OF KV3 CHANNELS” (Autifony Therapeutics Limited, priority 2016, published 2020).

How the values were obtained:
[1] = biological target: T1, human Kv3.1 channels (hKv3.1) (Homo sapiens, UniProt P48547); test: IonWorks Quattro whole-cell current potentiation assay, hKv3.1 (Biological Example 1); type: cell-based; conditions: recombinant cell assay, -15 mV voltage step; positive modulator = at least 20% of effect of 50 microM reference compound
T1 construct: expressed in transfected cells; host or cells: CHO/Gam/E1A-clone22 (CGE22) cells, CHO-K1-derived, transduced with BacMam pFBM/human Kv3.1
T1 sequence (P48547 1-511): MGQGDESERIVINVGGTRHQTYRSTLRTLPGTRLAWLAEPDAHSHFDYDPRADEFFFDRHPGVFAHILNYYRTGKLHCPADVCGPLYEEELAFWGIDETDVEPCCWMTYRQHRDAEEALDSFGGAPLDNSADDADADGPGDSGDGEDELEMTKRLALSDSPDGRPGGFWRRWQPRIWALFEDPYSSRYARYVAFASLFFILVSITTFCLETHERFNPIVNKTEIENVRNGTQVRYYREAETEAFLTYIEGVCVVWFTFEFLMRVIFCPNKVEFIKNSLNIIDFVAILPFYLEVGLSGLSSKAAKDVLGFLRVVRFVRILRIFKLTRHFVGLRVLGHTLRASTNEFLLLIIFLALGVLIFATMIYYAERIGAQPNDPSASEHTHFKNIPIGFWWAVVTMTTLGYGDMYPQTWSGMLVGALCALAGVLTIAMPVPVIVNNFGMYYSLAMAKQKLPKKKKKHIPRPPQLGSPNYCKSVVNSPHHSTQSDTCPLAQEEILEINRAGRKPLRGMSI
From the text: (§1) The ability of the compound of the invention to modulate the voltage-gated potassium channel subtypes Kv3.2 or Kv3.1 may be determined using the following assay. Analogous methods may be used to investigate the ability of the compound of the invention to modulate other channel subtypes, including Kv3.3 and Kv3.4.
To assess compound effects on human Kv3.1 channels (hKv3.1), CHO/Gam/E1A-clone22 alias CGE22 cells were transduced using a hKv3.1 BacMam reagent. This cell line was designed to be an improved CHO-K1-based host for enhanced recombinant protein expression as compared to wild type CHO-K1.
The cell line was generated following the transduction of CHO-K1 cells with a BacMam virus expressing the Adenovirus-Gam1 protein and selection with Geneticin-G418, to generate a stable cell line, CHO/Gam-A3. […]
(§2) Experiments were conducted at room temperature using IonWorks Quattro™ planar array electrophysiology technology (Molecular Devices Corp.) with PatchPlate™ PPC. […] Planar electrode hole resistances(Rp) were determined by applying a 10 mV voltage step across each well. […] Test pulses protocol may be performed in the absence (pre-read) and presence (post-read) of the test compound. Pre- and post-reads may be separated by the compound addition followed by a 3 minute incubation. […]

[2] = Determination of in vivo pharmacokinetic parameters (Biological Example 3); set-up: species or system rat; conditions: for Tmax: Median
Method: […] After oral administration, blood samples are collected under deep Isofluorane anesthesia from the portal vein and heart of each rat (1 rat per time point). After intravenous administration, serial blood samples are collected from the lateral tail vein of each rat. A further group of rats (n=1 per test compound) receive a single intravenous administration of the PgP transport inhibitor, Elacridar (3 mg/kg) shortly before the oral administration of the test compound at 1 mg/kg, as above. Blood and brain samples ar collected at a single timepoint of 0.5 h after dose administration for these animals. In all cases, blood samples are collected into potassium EDTA tubes.
Blood and brain samples can be assayed for test compound concentration using a method based on protein precipitation with acetonitrile followed by HPLC/MS-MS analysis with an optimized analytical method.
The concentrations of test compound in blood (expressed as ng/ml) and brain (expressed as ng/g) at the different time points following either oral or intravenous dosing are analysed using a non-compartmental pharmacokinetic model using WinNonLin Professional version 4.1. The following parameters are derived:
Intravenous dosing: Maximum concentration over time (Cmax), integrated concentration over time (AUC), clearance (Clb), volume of distribution (Vss) and half-life (t1/2).
Oral dosing: Cmax, time of maximum concentration (Tmax), AUC, bioavailability (F %), fraction absorbed (Fa %), blood to brain ratio (AUC BB), and Fold-change in AUC BB in the presence of Elacridar.

[3] = biological target: T2, human Kv3.2 channels (hKv3.2) (Homo sapiens, UniProt Q96PR1); test: IonWorks Quattro whole-cell current potentiation assay, hKv3.2 (Biological Example 1); type: cell-based; conditions: recombinant cell assay, -15 mV voltage step; positive modulator = at least 20% of effect of 50 microM reference compound
T2 construct: expressed in transfected cells
T2 sequence (Q96PR1 1-638): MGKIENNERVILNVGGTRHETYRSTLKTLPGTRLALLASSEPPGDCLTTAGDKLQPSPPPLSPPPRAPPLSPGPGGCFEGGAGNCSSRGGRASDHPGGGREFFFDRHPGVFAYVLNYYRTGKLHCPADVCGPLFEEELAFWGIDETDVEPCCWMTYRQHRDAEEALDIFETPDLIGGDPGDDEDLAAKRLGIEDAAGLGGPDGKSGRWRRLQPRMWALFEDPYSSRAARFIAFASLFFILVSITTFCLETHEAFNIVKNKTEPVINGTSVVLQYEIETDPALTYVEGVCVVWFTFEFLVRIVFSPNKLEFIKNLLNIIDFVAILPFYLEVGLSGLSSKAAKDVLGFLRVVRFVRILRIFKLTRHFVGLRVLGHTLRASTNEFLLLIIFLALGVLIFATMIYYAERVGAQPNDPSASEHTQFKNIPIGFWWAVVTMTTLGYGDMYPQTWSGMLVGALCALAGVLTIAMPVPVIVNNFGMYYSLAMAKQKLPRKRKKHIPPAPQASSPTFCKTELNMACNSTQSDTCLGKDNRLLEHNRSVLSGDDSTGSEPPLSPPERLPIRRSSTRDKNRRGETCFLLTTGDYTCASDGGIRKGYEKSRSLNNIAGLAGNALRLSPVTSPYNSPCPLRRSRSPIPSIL
From the text: as §1
To assess compound effects on human Kv3.2 channels (hKv3.2), a stable cell line expressing hKv3.2 was created by transfecting Chinese Hamster Ovary (CHO)-K1 cells with a pClH5-hKv3.2 vector. Cells were cultured in DMEM/F12 medium supplemented by 10% Foetal Bovine Serum, 1× non-essential amino acids (Invitrogen) and 500 ug/ml of Hygromycin-B (Invitrogen). Cells were grown and maintained at 37° C. in a humidified environment containing 5% CO2 in air.
The day of the experiment, cells were removed from the incubator and the culture medium removed. […]
as §2

[4] = male, rat, whole blood, Blood, IV 1 mg/kg, Mean
[5] = male, rat, whole blood, Blood, PO 3 mg/kg, Mean

modulation of Kv3.1 channels (whole-cell currents) [1]: positive modulators
Bioavailability (%) Using AUCinf ([2]; Blood, PO 3 mg/kg vs IV 1 mg/kg): 138%
availability ([2]; in vivo pharmacokinetics): good availability
AUC(0-inf) [2, 4]: 353 ng·h/mL
Cmax [2, 4]: 904 ng/mL
clearance [2, 4]: 47.6 mL/min/kg
half-life [2, 4]: 15.6 min
Vd ([2]; male, rat, whole blood, Blood, IV 1 mg/kg, Mean, read-out: Vdss): 1 L/kg
Tmax ([2]; male, rat, whole blood, Blood, IV 1 mg/kg): 4.98 min
AUC(0-inf) [2, 5]: 1440 ng·h/mL
Cmax [2, 5]: 1660 ng/mL
half-life [2, 5]: 24.6 min
Tmax ([2]; male, rat, whole blood, Blood, PO 3 mg/kg): 15 min
modulation of Kv3.2 channels (whole-cell currents) [3]: positive modulators
SMILES: CC[C@H]1NC(=O)N(c2ccc(Oc3ccc(C)c4c3C3(CC3)CO4)cn2)C1=O [compound of the invention]
